Tested on: NOMO1
Assay: cell viability relative to DMSO control; higher = less cytotoxic
Settings: 48 h
In short: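 In 1536-well plates, 5 μl of leukemia cells were seeded per well: 500 cells/well for NOMO1 or SEM and 1000 cells/well for P12-Ichikawa. Each line had first been adapted for at least four passages in each medium. Library compounds in DMSO were pin-dosed at 11 threefold concentrations between 47 μM and 0.79 nM, and CellTiter-Glo One luminescence was read after 48 h at 37°C. Viability is a per-plate percentage relative to DMSO wells, with cell-free wells as background.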

[1] = HPLM + 10% dialyzed FBS, 0.000781 µM
[2] = HPLM + 10% dialyzed FBS, 0.00234 µM
[3] = HPLM + 10% dialyzed FBS, 0.00702 µM
[4] = HPLM + 10% dialyzed FBS, 0.0211 µM
[5] = HPLM + 10% dialyzed FBS, 0.0632 µM
[6] = HPLM + 10% dialyzed FBS, 0.19 µM
[7] = HPLM + 10% dialyzed FBS, 0.569 µM
[8] = HPLM + 10% dialyzed FBS, 1.71 µM
[9] = HPLM + 10% dialyzed FBS, 5.12 µM
[10] = HPLM + 10% dialyzed FBS, 15.4 µM
[11] = HPLM + 10% dialyzed FBS, 46.1 µM
[12] = RPMI 5 mM glucose + 10% FBS, 0.000781 µM
[13] = RPMI 5 mM glucose + 10% FBS, 0.00234 µM
[14] = RPMI 5 mM glucose + 10% FBS, 0.00702 µM
[15] = RPMI 5 mM glucose + 10% FBS, 0.0211 µM
[16] = RPMI 5 mM glucose + 10% FBS, 0.0632 µM
[17] = RPMI 5 mM glucose + 10% FBS, 0.19 µM
[18] = RPMI 5 mM glucose + 10% FBS, 0.569 µM
[19] = RPMI 5 mM glucose + 10% FBS, 1.71 µM
[20] = RPMI 5 mM glucose + 10% FBS, 5.12 µM
[21] = RPMI 5 mM glucose + 10% FBS, 15.4 µM
[22] = RPMI 5 mM glucose + 10% FBS, 46.1 µM
[23] = RPMI 5 mM glucose + 10% dialyzed FBS, 0.000781 µM
[24] = RPMI 5 mM glucose + 10% dialyzed FBS, 0.00234 µM
[25] = RPMI 5 mM glucose + 10% dialyzed FBS, 0.00702 µM
[26] = RPMI 5 mM glucose + 10% dialyzed FBS, 0.0211 µM
[27] = RPMI 5 mM glucose + 10% dialyzed FBS, 0.0632 µM
[28] = RPMI 5 mM glucose + 10% dialyzed FBS, 0.19 µM
[29] = RPMI 5 mM glucose + 10% dialyzed FBS, 0.569 µM
[30] = RPMI 5 mM glucose + 10% dialyzed FBS, 1.71 µM
[31] = RPMI 5 mM glucose + 10% dialyzed FBS, 5.12 µM
[32] = RPMI 5 mM glucose + 10% dialyzed FBS, 15.4 µM
[33] = RPMI 5 mM glucose + 10% dialyzed FBS, 46.1 µM

Row | Structure (SMILES) | cell viability [1] [%] | cell viability [2] [%] | cell viability [3] [%] | cell viability [4] [%] | cell viability [5] [%] | cell viability [6] [%] | cell viability [7] [%] | cell viability [8] [%] | cell viability [9] [%] | cell viability [10] [%] | cell viability [11] [%] | cell viability [12] [%] | cell viability [13] [%] | cell viability [14] [%] | cell viability [15] [%] | cell viability [16] [%] | cell viability [17] [%] | cell viability [18] [%] | cell viability [19] [%] | cell viability [20] [%] | cell viability [21] [%] | cell viability [22] [%] | cell viability [23] [%] | cell viability [24] [%] | cell viability [25] [%] | cell viability [26] [%] | cell viability [27] [%] | cell viability [28] [%] | cell viability [29] [%] | cell viability [30] [%] | cell viability [31] [%] | cell viability [32] [%] | cell viability [33] [%]
1 | CCOC(=O)[C@@H](N)Cc1ccc(-c2cc(O[C@H](c3ccc(Cl)cc3-n3ccc(C)n3)C(F)(F)F)nc(N)n2)cc1.O=C(O)CNC(=O)c1ccccc1 | 114 | 111 | 121 | 125 | 114 | 118 | 114 | 116 | 94.2 | 102 | 5.68 | 108 | 96.2 | 109 | 101 | 94.3 | 90.3 | 97.6 | 103 | 95.4 | 90.1 | 7.52 | 102 | 117 | 102 | 100 | 97 | 98.6 | 122 | 105 | 98.3 | 88.6 | 4.2
2 | C[C@@H]1COCCN1c1cc(C2([S@+](C)(=N)[O-])CC2)nc(-c2ccnc3[nH]ccc23)n1 | 94.9 | 116 | 119 | 121 | 127 | 120 | 91.9 | 67.7 | 34.5 | 27.6 | 24.6 | 102 | 114 | 114 | 119 | 115 | 130 | 114 | 103 | 59.4 | 24.5 | 17.9 | 97.6 | 107 | 114 | 119 | 122 | 120 | 116 | 98.2 | 39 | 22 | 22.3
3 | COc1cc(F)c(F)c(Nc2ccc(I)cc2F)c1N[S+](=O)([O-])C1(C[C@H](O)CO)CC1 | 111 | 119 | 117 | 113 | 116 | 113 | 101 | 113 | 99.3 | 91.8 | 57 | 104 | 95.3 | 94.9 | 99.4 | 99.5 | 102 | 92.5 | 111 | 93.2 | 87.9 | 86.5 | 112 | 110 | 109 | 115 | 108 | 106 | 110 | 122 | 106 | 88.8 | 71.9
